Source: paper PMC9995496, “A screen for MeCP2-TBL1 interaction inhibitors using a luminescence-based assay” (Scientific Reports, 2023)
Each block holds one compound with its values, some of them ahead of it. Ends that are not written are not given here. * marks the point of attachment. Biotin = O=C1N[C@H]2[C@H](CS[C@H]2CCCCC(=O)*)N1

Assays:
[1] = molecular target: T1, MeCP2-TBL1 interaction (MeCP2-SmBiT / TBL1-LgBiT) (Mus musculus, UniProt Q9QXE7); experiment: MeCP2-TBL1 NanoLuc luciferase complementation assay (cell-free, extracts of transfected HEK293 cells); format: binding, human; conditions: for extent of MeCP2-TBL1 inhibition reached within the tested concentration range / separation between MeCP2-TBL1 inhibition and inhibition of the PKA control in dose response: 0.3–60 μM; for separation between MeCP2-TBL1 inhibition and inhibition of the PKA control in dose response: PKA-based assay run in parallel; for IC50: dose response 0.3–60 μM, triplicate, 30 min, luminescence normalized to DMSO, read-out: IC50, inhibition of MeCP2-TBL1 luminescence signal; for inhibition in MeCP2-TBL1 assay compared with control PKA-based assay, individual validation / inhibition at 20 µM / Inh (MeCP2-TBL1): 20 µM; for inhibition in MeCP2-TBL1 assay compared with control PKA-based assay, individual validation: n = 7, t-test; for inhibition at 20 µM: ApexBio library screen, threshold SSMD* ≥ 3, read-out: inhibition in MeCP2-TBL1 assay after adjusting for activity in the PRKACA-PRKAR2A assay; for Inh (MeCP2-TBL1): ApexBio FDA-approved Drug Library screen;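 for Inhibition percent: each compound tested at 20 µM final concentration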
T1 construct: expressed in transfected cells; crude lysate used as a cell-free assay
T1 sequence (Q9QXE7 166-527): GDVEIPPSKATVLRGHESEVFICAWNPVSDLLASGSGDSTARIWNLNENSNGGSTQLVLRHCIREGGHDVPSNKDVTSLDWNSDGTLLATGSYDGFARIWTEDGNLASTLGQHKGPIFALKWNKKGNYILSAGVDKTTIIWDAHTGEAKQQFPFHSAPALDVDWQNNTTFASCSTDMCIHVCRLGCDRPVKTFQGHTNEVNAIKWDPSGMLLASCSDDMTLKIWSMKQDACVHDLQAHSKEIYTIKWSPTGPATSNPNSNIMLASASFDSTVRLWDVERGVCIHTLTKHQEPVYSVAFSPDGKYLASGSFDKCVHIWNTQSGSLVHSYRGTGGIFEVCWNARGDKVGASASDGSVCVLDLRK
How it was run: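 Cell-free split NanoLuc: lysate of HEK293 cells co-expressing the MeCP2 C-terminal half-SmBiT and TBL1 WD domain-LgBiT, mixed 1:1 with furimazine. After 30 min at room temperature, luminescence was plate-median normalized.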

[2] = test system: PRKACA-PRKAR2A interaction (SmBiT-PRKACA / LgBiT-PRKAR2A), protein kinase A; experiment: PKA-based NanoLuc complementation control assay (counter-screen); format: binding, human; parameters: Inh (PKA): unit not given here; conditions: 20 µM; for Inh (PKA): ApexBio FDA-approved Drug Library screen
From the text: To distinguish such false positives from genuine inhibitors of the interaction between MeCP2 and TBL1/TBLR1, a control screen is essential, utilising the same NanoLuc SmBiT and LgBiT fragments, but with an unrelated protein interaction pair. The interaction between PRKACA and PRKAR2A, which are the catalytic and regulatory subunits of human protein kinase A (PKA) respectively, has previously been measured using a NanoLuc complementation assay. We tested this pair of interacting proteins for activity in a NanoLuc complementation assay under our conditions. […] We therefore selected the PKA-based NanoLuc complementation as a suitable control assay. The effects of the four compounds identified from the Asinex library were assessed in the control PKA-based NanoLuc assay.
The AgeI-NotI restriction fragment (encoding EGFP) was then replaced with a codon optimized SmBiT sequence to yield the MeCP2-SmBiT expression plasmid. […]
In the screens described here, the lysate obtained from a single 15 cm plate was used for 2.5 384-well assay plates. […] After 30 min incubation at room temperature, luminescence was measured on a Tecan M1000 multi-mode plate reader. Raw luminescence reads from each well on each plate were normalized to the median luminescence signal for that plate. […] After plate normalization the robust SSMD (SSMD*) was calculated as described elsewhere. […]
Assays were performed as described above except instead of a single concentration, a threefold serial dilution ranging from 60 to 0.03 μM was tested in triplicate for each of the compounds. Half-maximal inhibitory concentrations were calculated using global nonlinear regression by fitting the response data sets of all compounds simultaneously with a four-parameter logistic curve of log inhibitor concentration versus normalized luminescence using GraphPad Prism. […] The luminescence signal of each compound concentration was normalized by dividing the luminescence signal of the DMSO control.

[3] = primary screen of the Asinex library, sheet "Sargen output Asinex library", one well per compound
[4] = primary screen of Asinex library, single well per compound
[5] = primary screen of the Asinex library, sheet "Sargen output Asinex library", one well per compound, Batch Ref. 1

Compound: CC(C)(C)OC(=O)N(Cc1ccccc1)C[C@@H]1C[C@H](O)[C@H](O)[C@H]1n1cnc2c(N)ncnc21 [BDH_34018090]
Inhibition percent [1, 3]: -1.62%

Compound: O=C(NCCc1ccccc1)[C@@H]1[C@H](O)[C@@H](c2ccc(F)cc2)CN1C(=O)Cc1c[nH]c2ccccc12 [BDH_34023215]
Inhibition percent [1, 4]: 2.61

Compound: CCCCC[C@]1(O)CCN(S(=O)(=O)c2ccccc2)C[C@@H]1Oc1cccc(F)c1 [BDH_34032183]
Inhibition percent [1, 5]: 9.13%

Compound: CC(C)C[C@H]1CN(C(=O)CCn2c(=O)oc3cc(Cl)ccc32)CC[C@H]1Nc1cccc(F)c1 [BDH_34035644]
Inhibition percent [1, 5]: 1.76%

Compound: COCCC(=O)N[C@@]1(C)C[C@@H](c2ccc(F)cc2)O[C@@H](c2ccc(N3CCCC3=O)cc2)C1 [BDH_34036118]
Inhibition percent [1, 4]: 3.23

Compound: CN(C)CCOc1ccc(C(=O)N(C)CC2(O)CCCN(c3ccnc4ccncc34)C2)cc1 (stereo not shown) [BDH_34040371]
Inhibition percent [1, 4]: -4.15

Compound: COc1cccc(C2CN(Cc3ccccc3)C(=O)C23CCN(Cc2cccc(C(=O)O)c2)CC3)c1 (stereo not shown) [BDH_34129947]
Inhibition percent [1, 4]: -0.66

Compound: COc1cccc(C2CN(Cc3ccccc3)C(=O)C23CCN(Cc2ccc(C(=O)O)cc2)CC3)c1 (stereo not shown) [BDH_34130105]
Inhibition percent [1, 4]: 0.45

Compound: CC1(C)Oc2ccccc2[C@@H]2O[C@@H]3CCN(C(=O)c4cccc(Cn5ccnc5)c4)C[C@]3(CO)C[C@H]21 [BDH_34133896]
Inhibition percent [1, 5]: 6.91%

Compound: CC(=O)N1CCC(C(=O)N[C@@H]2C[C@@H](Oc3cccc(F)c3)[C@H](O)[C@H]2N(C)Cc2ccccc2)CC1 [BDI_34055064]
Inhibition percent [1, 3]: 0.18%

Compound: CN(Cc1ccccc1)[C@@H]1[C@@H](O)[C@H](Oc2cccc(C(F)(F)F)c2)C[C@H]1NC(=O)c1cocn1 [BDI_34061115]
Inhibition percent [1, 5]: 4.93%

Compound: CN(C)Cc1cccc(N/C(=C2\C(=O)Nc3cc(C(=O)N(C)C)ccc32)c2ccccc2)c1 [BIX02189, reference compound]
inhibition in MeCP2-TBL1 assay compared with control PKA-based assay, individual validation [1]: did not have a statistically different effect | separation between MeCP2-TBL1 inhibition and inhibition of the PKA control in dose response [1]: only modest selectivity | inhibition at 20 µM [1]: ≥ 35% | IC50 [1]: 28 µM

Compound: Oc1ccc(Nc2nc(-c3ccc(Cl)cc3)cs2)cc1 [SKI II, reference compound]
Inh (MeCP2-TBL1) [1]: 10.5772 | Inh (PKA) [2]: 14.6502

Compound: COc1ccc(/C(Cl)=C(/C=O)c2ccc(OC)cc2)cc1 [Windorphen, reference compound]
Inh (MeCP2-TBL1) [1]: 12.6933 | Inh (PKA) [2]: 33.916

Compound: CCNC(=O)c1noc(-c2cc(C(C)C)c(O)cc2O)c1-c1ccc(CN2CCOCC2)cc1 [luminespib, reference compound]
inhibition in MeCP2-TBL1 assay compared with control PKA-based assay, individual validation [1]: statistically significantly greater | extent of MeCP2-TBL1 inhibition reached within the tested concentration range [1]: without being able to completely inhibit MeCP2-TBL1 binding | separation between MeCP2-TBL1 inhibition and inhibition of the PKA control in dose response [1]: clear separation | inhibition at 20 µM [1]: ≥ 35% | IC50 [1]: 31 µM

Compound: LSSWVLLMK [AAT, alpha-1 antitrypsin fragment 235–243, reference compound]
inhibition in MeCP2-TBL1 assay compared with control PKA-based assay, individual validation [1]: statistically significantly greater | extent of MeCP2-TBL1 inhibition reached within the tested concentration range [1]: able to return the luminesce signal back to baseline | separation between MeCP2-TBL1 inhibition and inhibition of the PKA control in dose response [1]: clear separation | inhibition at 20 µM [1]: ≥ 35%

Compound: control peptide with the R306C mutation: 35 amino acid MeCP2 NID peptide (residues 285-319) carrying the R306C mutation, N-terminal biotin (Biotin-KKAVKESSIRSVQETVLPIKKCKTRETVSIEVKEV; UniProt P51608 285-319, looked up, variant R306C) [reference compound]
effect of competitor peptide on MeCP2-TBL1 luminescence signal ([1]; peptide at 20 µM, n = 2): failed to substantially affect

Continued, in another order:

separation between MeCP2-TBL1 inhibition and inhibition of the PKA control in dose response [1]: clear separation | IC50 [1]: 18 µM
Compound: C[C@H]1CC[C@H]2[C@H](O1)c1cc(OCC(=O)NCc3ccccc3)ccc1OC2(C)C [BDG 34039627]
extent of MeCP2-TBL1 inhibition reached within the tested concentration range [1]: able to return the luminesce signal back to baseline | effect on luminescence in PKA control assay ([2]; n = 3): did not cause a reduction in luminescence

Inhibition percent [1, 3]: 4.22%
Compound: CC(C)=CCC[C@]1(C)Oc2cc(OCC(=O)O)ccc2[C@H]2OCC3(CCN(C(=O)OC(C)(C)C)CC3)C[C@@H]21 [BDH_33958802]

Inhibition percent [1, 4]: 5.22
Compound: COCCC(=O)N[C@]1(C)C[C@@H](c2ccc(Cl)cc2)O[C@@H](c2cc(Br)ccc2O)C1 [BDH_34036884]

Inhibition percent [1, 3]: 0.50%
Compound: CCc1nnsc1C(=O)NC[C@]1(c2ccccc2)CC[C@@H](O)[C@H](N2CCOCC2)CC1 [BDH_34124703]

Inhibition percent [1, 4]: 5.00
Compound: COc1cccc(C2CN(Cc3ccccc3)C(=O)C23CCN(Cc2ccccc2C(=O)O)CC3)c1 (stereo not shown) [BDH_34130263]

Inhibition percent [1, 5]: -0.09%
Compound: COc1ccc(CN(C)[C@@H]2[C@@H](O)[C@H](Oc3cccc(F)c3)C[C@H]2NC(=O)CCC(N)=O)cc1 [BDI_34058033]

Inh (MeCP2-TBL1) [1]: 13.6055
Compound: O=C1C(Cl)=C(N2CCOCC2)C(=O)N1c1ccc(Cl)c(Cl)c1 [RI-1, reference compound]

inhibition in MeCP2-TBL1 assay compared with control PKA-based assay, individual validation [1]: statistically significantly greater | separation between MeCP2-TBL1 inhibition and inhibition of the PKA control in dose response [1]: only modest selectivity | inhibition at 20 µM [1]: ≥ 35% | IC50 [1]: 34 µM
Compound: C=C1C(=O)[C@]23[C@H](O)[C@H]1CC[C@H]2[C@@]12CO[C@]3(O)[C@@H](O)[C@@H]1C(C)(C)CC[C@@H]2O [oridonin, reference compound]
